This is an account of results in publication PMC8056227, “Deverra tortuosa (Desf.) DC from Saudi Arabia as a new source of marmin and furanocoumarins derivatives with α-glucosidase, antibacterial and cytotoxic activities” (Heliyon, 2021).

For assay [1], the system named is Enterococcus faecalis: ATCC 29212. Description: Antibacterial well diffusion, E. faecalis. The assay is classed as cell-based. Details: dose or concentration left out as unconfirmed. From the text: (§1) ATCC strains (American Type Culture Collection) were purchased from BD (Becton, Dickinson and Company). These strains were primarily activated in brain heart infusion broth and then grown on nonselective media nutrient agar (NA). A total of 7 bacterial strains (Escherichia. coli: ATCC 25922, Klebsiella pneumonia: ATCC 700603, Proteus mirabilis: ATCC 14153, Salmonella typhimurium: ATCC 14028, Pseudomonas aeruginosa: ATCC 254992, Staphylococcus aureus: ATCC 254996 and Enterococcus faecalis: ATCC 29212) were tested for antibacterial activity.
(§2) The 0.5 Macfarland standards were used to prepare the bacterial inoculum from log phase bacterial growth. Muller-Hinton agar (MHA) media plates were prepared aseptically in a safety cabinet; the medium was used to evaluate antibacterial activity. Sterile cork borer was used to make five wells (6 mm). MHA medium was swabbed with fresh culture (24 h ATCC bacterial strains). […] As a positive control, 15 μg of tetracycline was used and the negative control consists of 50 μL DMSO. The test was conducted with 3 replications. The plates were incubated according to Clinical and Laboratory Standards Institute guidelines ([CLSI 2017]) and the experiments were carried out aerobically at 35–37 °C for 18–20 h. The diameter of the inhibition zone around the wells was measured using a ruler, and the mean and standard deviation were calculated for three readings.
A general note: A growth-free zone around the sample is the usual read-out of agar diffusion tests.

For assay [2], the system named is Salmonella typhimurium: ATCC 14028. Nature of the assay: Antibacterial well diffusion, S. typhimurium. The format is cell-based. Details: dose or concentration left out as unconfirmed.
Excerpt: as §1, §2

For assay [3], the system named is MCF-7 (breast cancer) cells. Nature of the assay: MTT cytotoxicity assay, MCF-7. Conditions: Homo sapiens, MCF7, 72 h, read-out: percentage of inhibition, MCF-7. The assay is classed as cell-based. How it is done:
(§3) In the present study, two cancer cell lines were tested: HCT116 (colorectal carcinoma) and MCF-7 (breast cancer) (American Type Culture Collection, USA). Fetal calf serum (FCS: 10 %) and L-glutamine (2 mM) were used to make complete growth medium to conserve the cell lines (RPMI: Roswell Park Memorial Institute, France). Cell lines were incubated at 37 °C under atmosphere conditions of CO2 (5%). All tests were performed when the cells reached 80% confluence, and a trypan blue exclusion assay was used to test the viability of the cell lines ([Louis and Siegel, 2011]).
The cytotoxicity of the isolated compounds against HCT116 (colorectal carcinoma) and MCF-7 (breast cancer) cells was evaluated spectrophotometrically through an MTT assay. The assay was performed in 96-well microtiter plates ([Bekir et al., 2013]). The concentrations of HCT-116 and MCF-7 cells were fixed at 10 × 10^3 and 12 × 10^3 cells/well, respectively. The adherent cells were incubated overnight (37 °C) in a 5% enriched CO2 atmosphere. […] After removing the medium, incubated cells (37 °C) were mixed with 50 μL of MTT solution (3 mg/mL in phosphate-buffered saline, PBS) for 20–40 min. The […] proceeded by adding 80 μL of 100% DMSO. The measurement of the obtained reaction was taken spectrophotometrically at 540 nm. As a positive control, Doxorubicin, a conventional anticancer drug, was used. Cell viability was measured using formula II:II % Inhibition = […]where Abs control is the absorbance measured of the total cell activity as described without any inhibition; Abs blank control is the absorbance of MTT substrate; and Abs sample is the absorbance of each inhibitor compound sample.

Assay [4] concerns Proteus mirabilis: ATCC 14153. Description: Antibacterial well diffusion, P. mirabilis. The assay is classed as cell-based. More on the design: dose or concentration left out as unconfirmed.
Excerpt: as §1, §2

The subject of assay [5] is Escherichia. coli: ATCC 25922. Nature of the assay: Antibacterial well diffusion, E. coli. The assay is classed as cell-based. More on the design: dose or concentration left out as unconfirmed. Conditions: ATCC25922, range stated over 3 compounds and 3 strains.
Excerpt: as §1
(§4) The 0.5 Macfarland standards were used to prepare the bacterial inoculum from log phase bacterial growth. Muller-Hinton agar (MHA) media plates were prepared aseptically in a safety cabinet; the medium was used to evaluate antibacterial activity. Sterile cork borer was used to make five wells (6 mm). MHA medium was swabbed with fresh culture (24 h ATCC bacterial strains). 50 μL of the tested compounds (0.5 mg/mL) prepared in DMSO were dispensed in the wells. As a positive control, 15 μg of tetracycline was used and the negative control consists of 50 μL DMSO. The test was conducted with 3 replications. The plates were incubated according to Clinical and Laboratory Standards Institute guidelines ([CLSI 2017]) and the experiments were carried out aerobically at 35–37 °C for 18–20 h. The diameter of the inhibition zone around the wells was measured using a ruler, and the mean and standard deviation were calculated for three readings.

Assay [6] has as its system Klebsiella pneumonia: ATCC 700603. Description: Antibacterial well diffusion, K. pneumonia. To be noted: for antibacterial activity in words, K. pneumonia: 1 mg/mL; for zone of inhibition: Klebsiella pneumoniae, ATCC700603, range stated over 3 compounds and 3 strains. The assay is classed as cell-based. Details: zone of inhibition: dose or concentration left out as unconfirmed.
Excerpt: as §1, §2

Assay [7] concerns Pseudomonas aeruginosa: ATCC 254992. Description: Antibacterial well diffusion, P. aeruginosa. The assay is classed as cell-based. Details: dose or concentration left out as unconfirmed. To be noted: ATCC254992, range stated over 3 compounds and 3 strains.
Excerpt: as §1, §4

A further assay addresses α-glucosidase. Description: α-Glucosidase inhibitory activity (PNPG substrate). The assay is classed as biochemical. Conditions: pH 6.8, 37 °C, 30 min. How it is done:
(2013)]. The substrate P-nitrophenyl-α-D-glucopyranoside (PNPG) was used for this experiment. Dimethyl sulfoxide (DMSO) was used to prepare different concentrations of the compounds (10–1000 μM). […] Afterwards, 40 μL of PNPG solution (0.375 mM) prepared in phosphate buffer (pH = 6.8) was added to the mixture and then incubated (37 °C for 30 min). 80 μL of Na2CO3 (0.2 M) prepared in phosphate buffer was added to the mixture. The absorbance was measured at 405 nm, and the measurement was replicated 3 times. The percentage of inhibition (%) reflects the α-glucosidase inhibitory activity and was calculated by formula (I):(I) α-glucosidase inhibition activity (%) = [(Acontrol – Asample)/Acontrol] × 100where Asample is the absorbance (405 nm) in the presence of the isolated compound and Acontrol is the absorbance (405 nm) of the control (A control consists of 20 μL potassium phosphate buffer instead of α-glucosidase solution).

Assay [8] concerns HCT116 (colorectal carcinoma) cells. Nature of the assay: MTT cytotoxicity assay, HCT116. Conditions: Homo sapiens, HCT-116, 72 h, read-out: percentage of inhibition, HCT-116. The assay is classed as cell-based. The procedure:
as §3
The cytotoxicity of the isolated compounds against HCT116 (colorectal carcinoma) and MCF-7 (breast cancer) cells was evaluated spectrophotometrically through an MTT assay. The assay was performed in 96-well microtiter plates ([Bekir et al., 2013]). The concentrations of HCT-116 and MCF-7 cells were fixed at 10 × 10^3 and 12 × 10^3 cells/well, respectively. The adherent cells were incubated overnight (37 °C) in a 5% enriched CO2 atmosphere. […] Cell viability was measured using formula II:II % Inhibition = 100∗[(Abs control – Abs blank control)/(Abs sample- Abs blank sample)]where Abs control is the absorbance measured of the total cell activity as described without any inhibition; Abs blank control is the absorbance of MTT substrate; and Abs sample is the absorbance of each inhibitor compound sample.
Background: Formazan colour is commonly taken as a measure of viable cells.

The test system of assay [9] is Escherichia. coli: ATCC 25922. Details: method as in Tsassi et al., 2010. To be noted: previous studies on marmin; ref Tsassi et al., 2010; cited from earlier work.

Broadly, the inhibition is the change of the read-out against control, counted positive when it falls. As a reminder, the IC50 is the concentration that gives 50% inhibition. As to `CC(C)=CCOc1c2ccoc2cc2oc(=O)ccc12` [Compound 3, Isoimperatorin], the “antibacterial activity in words, E. faecalis” value in [1] is on record as “did not seem to be active”. The “antibacterial activity in words, S. typhimurium” value in [2] is “did not seem to be active”. Besides, the inhibition at 100 µM in assay [3] came to 43.2%. Also, in assay [4], the “antibacterial activity in words, P. mirabilis” value is recorded as “did not seem to be active”. In addition, the zone of inhibition in assay [5], in assay [6] and in assay [7] was 6 to 12 mm in each case. Moreover, in assay [6], the “antibacterial activity in words, K. pneumonia” value is recorded as “did not seem to be active”. On α-glucosidase, this molecule had an IC50 of 171 ± 7.6 µM.

Regarding `CC(=CCOc1ccc2ccc(=O)oc2c1)CCC(O)C(C)(C)OC1OC(CO)C(O)C(O)C1O` (stereo not drawn) [Compound 2, Pituranthoside], the zone of inhibition in assay [1] (Enterococcus faecalis, ATCC29212, read-out: inhibition zone (IZ), E. faecalis) is 22 mm; in assay [2] (Salmonella enterica, read-out: inhibition zone (IZ), S. typhimurium) it was 21 mm. Moreover, the inhibition at 100 µM in assay [3] was 29.9%; in assay [8], 42.7%. The molecule also came in with an IC50 at α-glucosidase of 347 ± 11.2 µM.

Turning to `C/C(=C\COc1ccc2ccc(=O)oc2c1)CC[C@@H](O)C(C)(C)O` [Compound 1, Marmin], the “inhibition zone, E. coli (previous studies)” value in [9] was 9.5 mm. The inhibition at 100 µM in [3] worked out at 17.1%; in assay [8], 41.8%. This molecule came in with an IC50 against α-glucosidase of 186 ± 8.3 µM.

Regarding `COc1c2ccoc2cc2oc(=O)ccc12` [Compound 4, Bergapten], in [1], the “antibacterial activity in words, E. faecalis” value is listed as “did not seem to be active”. Moreover, in assay [2], the “antibacterial activity in words, S. typhimurium” value is “did not seem to be active”. The “antibacterial activity in words, P. mirabilis” value in assay [4] is “did not seem to be active”. Moreover, the zone of inhibition in [5], in assay [6] and in [7] was 6 to 12 mm each time. Further, the “antibacterial activity in words, K. pneumonia” value in assay [6] is “did not seem to be active”.

`COc1c2ccoc2c(OC)c2oc(=O)ccc12` [Compound 5, Isopimpinellin]: in assay [1], the “antibacterial activity in words, E. faecalis” value is “did not seem to be active”. In addition, the “antibacterial activity in words, S. typhimurium” value in assay [2] is on record as “did not seem to be active”. Besides, in [3], the inhibition at 100 µM was determined as 30.6%. For the same molecule, the “antibacterial activity in words, P. mirabilis” value in assay [4] is recorded as “did not seem to be active”. Also, the zone of inhibition in assay [5], in [6] and in [7] was 6 to 12 mm throughout. The “antibacterial activity in words, K. pneumonia” value in assay [6] was “did not seem to be active”.
